These results are taken from ChEMBL document CHEMBL1177708, “Design, synthesis, and biological evaluation of a novel class of gamma-secretase modulators with PPARgamma activity” (J Med Chem, 2010).

The target of data set [1] is T1, Prostaglandin G/H synthase 2 (Homo sapiens) (UniProt P35354).
T1 sequence (whole entry): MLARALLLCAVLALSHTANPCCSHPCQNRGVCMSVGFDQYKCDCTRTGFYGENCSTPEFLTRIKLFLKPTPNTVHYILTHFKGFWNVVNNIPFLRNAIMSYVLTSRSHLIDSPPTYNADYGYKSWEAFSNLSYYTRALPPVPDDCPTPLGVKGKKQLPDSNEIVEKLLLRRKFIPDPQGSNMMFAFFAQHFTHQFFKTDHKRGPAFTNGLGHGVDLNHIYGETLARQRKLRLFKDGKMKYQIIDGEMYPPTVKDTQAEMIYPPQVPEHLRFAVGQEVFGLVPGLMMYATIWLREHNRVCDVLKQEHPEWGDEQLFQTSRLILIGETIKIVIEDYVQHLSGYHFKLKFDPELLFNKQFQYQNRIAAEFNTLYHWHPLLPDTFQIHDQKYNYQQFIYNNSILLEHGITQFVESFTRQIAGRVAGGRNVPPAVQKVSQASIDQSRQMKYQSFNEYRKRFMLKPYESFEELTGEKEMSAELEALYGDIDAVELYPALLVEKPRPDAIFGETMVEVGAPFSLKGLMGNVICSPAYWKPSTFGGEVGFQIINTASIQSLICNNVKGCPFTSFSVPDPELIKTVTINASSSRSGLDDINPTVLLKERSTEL
Nature of the data set: Inhibition of human recombinant COX2 assessed as residual activity at 10 uM after 5 mins.

Data set [2] has as its target T2, Peroxisome proliferator-activated receptor gamma (Homo sapiens) (UniProt P37231).
T2 sequence (whole entry): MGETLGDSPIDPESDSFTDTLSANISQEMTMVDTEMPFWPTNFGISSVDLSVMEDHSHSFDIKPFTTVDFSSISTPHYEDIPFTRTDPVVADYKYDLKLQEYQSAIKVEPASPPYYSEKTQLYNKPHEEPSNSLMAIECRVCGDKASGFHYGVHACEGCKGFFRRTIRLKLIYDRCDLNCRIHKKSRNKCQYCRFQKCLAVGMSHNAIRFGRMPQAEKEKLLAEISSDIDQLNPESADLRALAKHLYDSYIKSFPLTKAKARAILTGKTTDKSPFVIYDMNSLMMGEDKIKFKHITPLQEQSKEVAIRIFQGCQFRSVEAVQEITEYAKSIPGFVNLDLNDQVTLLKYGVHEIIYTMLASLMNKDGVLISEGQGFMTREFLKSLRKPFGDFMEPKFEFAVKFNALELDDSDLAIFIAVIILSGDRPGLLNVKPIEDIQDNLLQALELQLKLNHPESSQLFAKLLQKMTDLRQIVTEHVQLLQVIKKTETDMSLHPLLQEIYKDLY
The experiment in a line: Agonist activity at human PPARgamma-LBD expressed in COS7 cells co-transfected with Gal4 by luciferase based transactivation assay relative to pioglitazone. Format: functional, cell-based. The settings on record: COS-7.

Data set [3] addresses T3, Peroxisome proliferator-activated receptor gamma (Homo sapiens, UniProt P37231).
T3 sequence (P37231 whole entry): T2 sequence (whole entry)
The experiment in a line: Agonist activity at human PPARgamma-LBD expressed in COS7 cells co-transfected with Gal4 by luciferase based transactivation assay. It is filed as functional, cell-based, COS-7.

Data set [4] can be described thus: Modulation of gamma-secretase-mediated cleavage of human APP expressed in CHO cells with human presenilin-1 assessed as activation of amyloid beta38 production after 24 hrs by ELISA. Format: cell-based. Background: ELISA stands for enzyme-linked immunosorbent assay.
Data set [5] deals with T4, Prostaglandin G/H synthase 1 (Ovis aries) (UniProt P05979).
T4 sequence (whole entry): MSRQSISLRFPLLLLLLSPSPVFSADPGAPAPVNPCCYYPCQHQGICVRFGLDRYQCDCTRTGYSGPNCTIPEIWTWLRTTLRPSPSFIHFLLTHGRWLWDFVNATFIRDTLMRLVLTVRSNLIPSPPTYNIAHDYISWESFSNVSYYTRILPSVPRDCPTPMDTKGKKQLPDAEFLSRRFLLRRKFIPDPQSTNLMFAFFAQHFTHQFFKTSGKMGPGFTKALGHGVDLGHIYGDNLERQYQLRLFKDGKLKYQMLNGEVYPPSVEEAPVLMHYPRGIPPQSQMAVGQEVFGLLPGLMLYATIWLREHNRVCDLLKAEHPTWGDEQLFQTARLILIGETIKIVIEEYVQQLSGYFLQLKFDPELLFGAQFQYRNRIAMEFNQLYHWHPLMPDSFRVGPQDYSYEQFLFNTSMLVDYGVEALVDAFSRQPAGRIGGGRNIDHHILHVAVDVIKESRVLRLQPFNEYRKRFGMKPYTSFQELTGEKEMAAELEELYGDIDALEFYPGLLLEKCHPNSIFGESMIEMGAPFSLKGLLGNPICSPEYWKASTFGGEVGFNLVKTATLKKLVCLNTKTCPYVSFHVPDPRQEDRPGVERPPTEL
Nature of the data set: Inhibition of ovine COX1 assessed as residual activity at 10 uM after 5 mins.

Data set [6] relates to CHO. Nature of the data set: Cytotoxicity against CHO cells at 60 uM after 24 hrs by Alamar blue assay. Format: cell-based, Cricetulus griseus. The settings on record: chinese hamster.
The nature of data set [7]: cells. The following applies: CHO, 24 h.
Description: Modulation of gamma-secretase-mediated cleavage of human APP expressed in CHO cells with human presenilin-1 assessed as inhibition of amyloid beta42 production after 24 hrs by ELISA
The target of data set [8] is T5, Peroxisome proliferator-activated receptor alpha (Homo sapiens) (UniProt Q07869).
T5 sequence (whole entry): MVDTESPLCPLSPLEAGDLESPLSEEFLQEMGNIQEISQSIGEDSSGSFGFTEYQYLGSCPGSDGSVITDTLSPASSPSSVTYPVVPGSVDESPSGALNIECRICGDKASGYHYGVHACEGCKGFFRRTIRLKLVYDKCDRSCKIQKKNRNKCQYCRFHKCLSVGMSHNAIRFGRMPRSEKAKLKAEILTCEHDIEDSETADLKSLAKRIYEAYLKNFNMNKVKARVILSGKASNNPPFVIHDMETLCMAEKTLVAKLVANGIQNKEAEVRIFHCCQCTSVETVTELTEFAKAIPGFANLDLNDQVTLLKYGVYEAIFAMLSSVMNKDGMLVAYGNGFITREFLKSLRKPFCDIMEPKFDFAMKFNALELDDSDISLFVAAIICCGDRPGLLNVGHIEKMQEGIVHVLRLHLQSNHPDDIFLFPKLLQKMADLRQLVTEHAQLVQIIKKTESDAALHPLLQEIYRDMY
Nature of the data set: Agonist activity at human PPARalpha-LBD expressed in COS7 cells co-transfected with Gal4 at 10 uM by luciferase based transactivation assay. Format: functional, cell-based. The following applies: COS-7.

The target of data set [9] is T6, Peroxisome proliferator-activated receptor delta (Homo sapiens) (UniProt Q03181).
T6 sequence (whole entry): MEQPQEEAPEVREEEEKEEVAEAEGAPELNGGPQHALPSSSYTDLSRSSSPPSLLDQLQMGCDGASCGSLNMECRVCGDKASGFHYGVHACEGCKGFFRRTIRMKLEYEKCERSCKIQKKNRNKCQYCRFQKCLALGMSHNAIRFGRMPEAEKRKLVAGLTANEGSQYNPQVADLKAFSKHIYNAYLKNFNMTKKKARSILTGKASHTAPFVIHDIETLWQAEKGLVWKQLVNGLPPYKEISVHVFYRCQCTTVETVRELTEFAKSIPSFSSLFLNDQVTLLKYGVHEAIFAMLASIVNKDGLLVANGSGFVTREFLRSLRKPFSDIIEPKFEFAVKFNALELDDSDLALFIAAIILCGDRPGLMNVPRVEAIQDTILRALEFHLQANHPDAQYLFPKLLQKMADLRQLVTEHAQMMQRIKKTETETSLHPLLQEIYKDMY
The experiment in a line: Agonist activity at human PPARdelta-LBD expressed in COS7 cells co-transfected with Gal4 at 10 uM by luciferase based transactivation assay. The settings on record: COS-7. It is filed as functional, cell-based.

Structures are written as SMILES. Active and inactive are the calls of the source. The rule behind the calls is not given here.

The EC50 is the concentration giving half of the maximal effect. For orientation: IC50 means the concentration that gives 50% inhibition. A low value points to higher potency. Take `CCCCC(Sc1nc(OCCCc2ccccc2)cc(OCCCc2ccccc2)n1)C(=O)O` (configuration not stated): the Activity was 51.9% in [1], 78.8% in data set [5] and “Non-toxic” in [6]. Further, in data set [2], the Emax was 71%. Besides, the EC50 in data set [3] turned out to be 8.9 µM; in data set [4], 16.4 µM. Besides, the IC50 in data set [7] was found to be 30.9 µM. Also, the result in data set [8] and in data set [9] was inactive.

In the case of `O=C(O)CSc1nc(OCCc2ccccc2)cc(OCCc2ccccc2)n1`, the results for the Activity in data set [1], in data set [5] and in data set [6] were 91.7%, 91.8% and “Non-toxic”, respectively. The Emax in data set [2] was found to be 111%. Also, the EC50 in [3] is 3.7 µM; in data set [4] it was greater than 40 µM. In data set [7], the IC50 is greater than 40 µM. Moreover, the result in data set [8] and in data set [9] was inactive.

`CCCCC(Sc1nc(OCCC2CC2)cc(OCCC2CC2)n1)C(=O)O` (configuration not stated): the Activity is 87.9% in [1], 97.7% in [5] and “Non-toxic” in data set [6]. The compound also registered an Emax in data set [2] of 79%. The results for the EC50 in [3] and in data set [4] were 4.3 µM and 24 µM, respectively. This compound also displayed an IC50 in [7] greater than 40 µM. Moreover, the result in data set [8] and in [9] was inactive.

Regarding `CCCCC(Sc1nc(OCCC2CCCC2)cc(OCCC2CCCC2)n1)C(=O)O` (configuration not stated), the results for the Activity in data set [1], in [5] and in [6] were 84.7%, 68.2% and “Non-toxic”, respectively. The compound also yielded an Emax in data set [2] of 127%. The EC50 in data set [4] was determined as 9 µM. In addition, the IC50 in data set [7] was found to be 17.2 µM. Moreover, the result in [8] and in data set [9] was inactive.

For the compound `CCCCCCC(Sc1nc(OCCc2ccccc2)cc(OCCc2ccccc2)n1)C(=O)O` (configuration not stated), the Activity is 63.8% in data set [1], 61.8% in data set [5] and “Non-toxic” in [6]. This compound also registered an Emax in data set [2] of 59%. The EC50 was found to be 8.8 µM in [3] and 24.2 µM in data set [4]. In addition, in data set [7], the IC50 came out at 30.4 µM. Further, the result in data set [8] and in data set [9] was inactive.

Take `CCC(Sc1nc(OCCc2ccccc2)cc(OCCc2ccccc2)n1)C(=O)O` (configuration not stated): the Activity in data set [1] is 56.9%; in data set [5], 84.6%; in data set [6] it was “Non-toxic”. Also, the Emax in data set [2] worked out at 57%. The EC50 in data set [3] came to 6.1 µM; in [4], 31.1 µM. The IC50 in data set [7] turned out to be 41.6 µM. Further, the outcome in data set [8] and in [9] was inactive.

As to `CCCCC(Sc1nc(OCCc2ccc(C#N)cc2)cc(OCCc2ccc(C#N)cc2)n1)C(=O)O` (configuration not stated), the Activity in [1] was 82.6%; in [5], 88.8%; in data set [6], “Non-toxic”. For the same compound, in [2], the Emax stood at 65%. Moreover, the EC50 in data set [3] was 7 µM. In data set [7], this compound yielded an IC50 greater than 40 µM. The outcome in [8] and in data set [9] was inactive.

With `CCCCC(Sc1nc(OCCC(C)C)cc(OCCC(C)C)n1)C(=O)O` (configuration not stated), the Activity was 80.5% in [1], 72.4% in data set [5] and “Non-toxic” in data set [6]. Moreover, in [2], the Emax is 69%. In addition, the EC50 turned out to be 11 µM in data set [3] and 10.9 µM in data set [4]. Moreover, the IC50 in [7] was found to be 28.2 µM. In addition, the outcome in data set [8] and in [9] was inactive.

As to `CCCCC(Sc1nc(OCCc2ccc(OC(F)(F)F)cc2)cc(OCCc2ccc(OC(F)(F)F)cc2)n1)C(=O)O` (configuration not stated), the Activity in data set [1] is 75.8%; in [5], 73%; in [6], “Non-toxic”. In data set [2], this compound yielded an Emax of 115%. Besides, the results for the EC50 in data set [3] and in [4] were 10.3 µM and 5.5 µM, respectively. In addition, in data set [7], the IC50 is 8.6 µM. In addition, the outcome in data set [8] and in data set [9] was inactive.

On to `CCCC[C@H](Sc1nc(OCCc2ccccc2)cc(OCCc2ccccc2)n1)C(=O)O`, for which the results for the Activity in data set [1], in [5] and in data set [6] were 92.8%, 83.5% and “Non-toxic”, respectively. Besides, the Emax in data set [2] is 62%. Moreover, the values for the EC50 in data set [3] and in data set [4] were 10.4 µM and 13.5 µM, respectively. It took 32.6 µM to reach half-maximal inhibition in data set [7] (IC50). The outcome in data set [8] and in data set [9] was inactive.

In the case of `COc1ccc2c(c1)c(CC(=O)O)c(C)n2C(=O)c1ccc(Cl)cc1` [INDOMETHACIN], in [7], the IC50 is 25 µM.

As for `CCCCC(Sc1nc(OCCc2ccc(C)cc2)cc(OCCc2ccc(C)cc2)n1)C(=O)O` (configuration not stated), the Activity was 93.3% in data set [1], 57.2% in data set [5] and “Non-toxic” in data set [6]. Also, the Emax in [2] came out at 63%. Besides, the EC50 came out at 7.5 µM in data set [3] and 6.4 µM in [4]. The same compound came in with an IC50 in data set [7] of 13 µM. The outcome in [8] and in data set [9] was inactive.

On to `CCCCC(Sc1nc(OCCCCc2ccccc2)cc(OCCCCc2ccccc2)n1)C(=O)O` (configuration not stated), for which the figures for the Activity in [1], in data set [5] and in [6] were 53.9%, 78.8% and “Non-toxic”, respectively. Also, the Emax in data set [2] stood at 55%. Further, the EC50 in data set [3] is 10 µM; in data set [4] it was 16.4 µM. This compound displayed an IC50 in data set [7] of 22.9 µM. Further, the outcome in data set [8] and in [9] was inactive.
